One test concerns CD34+ cells. Nature of the test: Expansion of CD34+ cells using human cord blood-derived CD34+ cells (liquid culture, flow cytometry). It is filed as cell-based. Conditions: Assay Example 2; 1 or 2 μM; 100 ng/mL SCF + 20 ng/mL TPO; 7 days. As to the method:
Human cord blood-derived CD34^+ cells were purchased from Lonza and plated on a 24-well plate (Corning) (10000 cells/1 mL/well). As the culture medium, StemSpan SFEM (StemCell Technologies) containing 100 ng/mL SCF (Wako Pure Chemical Industries) and 20 ng/mL TPO (PeproTech) in terms of final concentration was used, and garcinol (COSMO BIO) dissolved in dimethyl sulfoxide was added to the medium in an amount of 0.1% (v/v) to a final concentration of 5 or 10 μM. Similarly, isogarcinol (Reference Synthetic Example 1) dissolved in dimethyl sulfoxide was added to the medium in an amount of 0.1% (v/v) to a final concentration of 2 or 5 μM. […]
After the cells were incubated in liquid culture at 37° C. for 7 days in a CO2 incubator (5% CO2), the number of viable cells was counted by trypan blue assay. The number of CD34^+CD38^− cells was calculated as follows. […] The stained cells were analyzed with a BD FACSCANTO™ II flow cytometer (Becton, Dickinson and Company) to determined the proportions of CD34^+ cells and CD34^+CD38^− cells, which was multiplied by the number of viable cells to calculate the numbers of CD34^+ cells and CD34^+CD38^− cells. […]
(§1) After the cells were incubated in liquid culture at 37° C. for 7 days in a CO2 incubator (5% CO2), the number of viable cells was counted by trypan blue assay. The number of CD34^+CD38^− cells was calculated in the same manner as in Assay Example 1.
(In general: A flow cytometer gives signals particle by particle.)

For another test, the system named is CD34+CD38- cells. The test can be described thus: Expansion of CD34+CD38- cells using human cord blood-derived CD34+ cells (liquid culture, flow cytometry). It is filed as cell-based. Conditions: for expansion activity on CD34+CD38- cells: 7 days; for expansion activity on hematopoietic stem cells: general statement, compared with the other specific compounds. The method, then:
Human cord blood-derived CD34^+ cells were purchased from Lonza and plated on a 24-well plate (Corning) (10000 cells/1 mL/well). As the culture medium, StemSpan SFEM (StemCell Technologies) containing 100 ng/mL SCF (Wako Pure Chemical Industries) and 20 ng/mL TPO (PeproTech) in terms of final concentration was used, and garcinol (COSMO BIO) dissolved in dimethyl sulfoxide was added to the medium in an amount of 0.1% (v/v) to a final concentration of 5 or 10 μM. Similarly, isogarcinol (Reference Synthetic Example 1) dissolved in dimethyl sulfoxide was added to the medium in an amount of 0.1% (v/v) to a final concentration of 2 or 5 μM. As a negative control, the medium containing 0.1% (v/v) dimethyl sulfoxide was used.
After the cells were incubated in liquid culture at 37° C. for 7 days in a CO2 incubator (5% CO2), the number of viable cells was counted by trypan blue assay. The number of CD34^+CD38^− cells was calculated as follows. After the incubation, the cells in the liquid culture was stained with a CD34 antibody (APC, Becton, Dickinson and Company) and a CD38 antibody (P E, Becton, Dickinson and Company), then washed with PBS(−) containing 2% (v/v) FBS and stained with propidium iodide (Sigma-Aldrich Japan) added to a final concentration of 5 μg/mL. The stained cells were analyzed with a BD FACSCANTO™ II flow cytometer (Becton, Dickinson and Company) to determined the proportions of CD34^+ cells and CD34^+CD38^− cells, which was multiplied by the number of viable cells to calculate the numbers of CD34^+ cells and CD34^+CD38^− cells.
Human cord blood-derived CD34^+ cells purchased from the same supplier as in Assay Example 1 were plated on a 24-well plate (Corning) (10000 cells/1 mL/well). As the culture medium, StemSpan SFEM (StemCell Technologies) containing 100 ng/mL SCF (Wako Pure Chemical Industries) and 20 ng/mL TPO (PeproTech) in terms of final concentration was used, and O-monomethylisogarcinol (Reference Synthetic Example 2) dissolved in dimethyl sulfoxide was added to the medium to a final concentration of 1 or 2 μM.
as §1
Human cord blood-derived CD34^+ cells purchased from the same supplier as in Assay Example 1 were plated on a 24-well plate (Corning) (10000 cells/1 mL/well). […]

The subject of a further test is HPP-CFC colonies. Nature of the test: Expansion of HPP-CFU using human cord blood-derived CD34+ cells (blood cell colony forming assay). It is filed as cell-based. To be noted: then 500 cells/dish MethoCult GF H4435, 12 days, None = 19. As to the method: The effects of garcinol and isogarcinol as compounds of the present invention on hematopoietic progenitor cells were measured by blood cell colony forming assay. The liquid cell cultures obtained in Assay Example 1 were poured into 3.5-cm Petri dishes with MethoCult GF H4435 culture medium (StemCell Technologies) at 500 cells/dish and incubated in a CO2 incubator (5% CO2, 37° C.) for 12 days. The number of HPP-CFC colonies in each plate was counted under a microscope routinely. The assay was carried out at least in duplicate, and the numbers of HPP-CFC colonies were averaged.

Test [1] relates to SCID-repopulating cells (SRC). The test can be described thus: Transplantation of cell culture into immunodeficient (NOD/SCID) mice (SRC assay). It is filed as in vivo, human. Conditions: CD34+ cells cultured with 10 μM, transplanted into irradiated NOD/SCID mice, 8 weeks; vs cells cultured without compound (FIG. 5). As to the method:
Human cord blood-derived CD34^+ cells cultured in the presence of 10 μM garcinol (COSMO BIO) in terms of final concentration or in the absence of garcinol (i.e., in a culture medium containing 0.1% (v/v) dimethyl sulfoxide) in the same manner as in Assay Example 1 were transplanted into at least five 7- to 8-week-old NOD/SCID mice by tail vein injection at 4 to 5×10^4 cells/mouse in terms of the initial number of CD34^+ cells after a sublethal dose of irradiation (2.5 Gy). Eight weeks after the transplantation, the mice were killed, and the bone marrow cells were collected from both thighbones. Subsequently, the bone marrow cells were stained with a human CD45 antibody (APC, Becton, Dickinson and Company), then washed with PBS(−) containing 2%(v/v) FBS and stained with propidium iodide (Sigma-Aldrich Japan) added to a final concentration of 5 μg/mL. The stained cells were analyzed by flow cytometry to determined the proportion of human CD45^+ cells in the bone marrow cells.

The structures appear in SMILES notation.

Consider `COc1ccc(C(=O)C2=C3OC(C)(C)[C@@H](CC=C(C)C)C[C@@]34C[C@@H](CC=C(C)C)C(C)(C)[C@@](CC=C(C)C)(C2=O)C4=O)cc1O` [O-monomethylisogarcinol, O-Monomethylisogarcinol], for which, in the test with CD34+ cells, the “expansion activity on CD34+ cells” value is listed as “excellent expansion activity”. In the test on CD34+CD38- cells (Assay Example 2, 1 or 2 μM, 100 ng/mL SCF + 20 ng/mL TPO, vs absence of compound (FIG. 3)), the “expansion activity on CD34+CD38- cells” value is “excellent expansion activity”.

For the molecule `C=C(C)[C@@H](CC=C(C)C)C[C@@]12C[C@@H](CC=C(C)C)C(C)(C)[C@@](CC=C(C)C)(C(=O)C(C(=O)c3ccc(O)c(O)c3)=C1O)C2=O` [garcinol, Garcinol], the “expansion activity on CD34+CD38- cells” value in the test on CD34+CD38- cells (Assay Example 3, 10 μM, in the presence of SCF, SCF and TPO, or SCF, TPO and FL, compared with absence of the compound (FIG. 4)) is “higher expansion activity”. Also, the “expansion activity on hematopoietic stem cells” value with CD34+CD38- cells is reported as “especially strong expansion activity”. The “Number of HPP-CFC colonies” value in the test on HPP-CFC colonies (10 μM in 7-day liquid culture (SCF+TPO)) turned out to be 35. Moreover, the “SRC expanding effect (proportion of human CD45+ cells in bone marrow)” value in test [1] is reported as “excellent SRC expanding effect”.

As to `CC(C)=CC[C@H]1C[C@@]23C[C@@H](CC=C(C)C)C(C)(C)[C@@](CC=C(C)C)(C(=O)C(C(=O)c4ccc(O)c(O)c4)=C2OC1(C)C)C3=O` [isogarcinol, Isogarcinol], the “expansion activity on hematopoietic stem cells” value in the test on CD34+CD38- cells was “especially strong expansion activity”. Further, in the test with HPP-CFC colonies (5 μM in 7-day liquid culture (SCF+TPO)), the “Number of HPP-CFC colonies” value is 42.
